This data set is described as follows: gradient 5% acetonitrile 3 min, to 50% in 2 min, to 85% in 15 min, held 3 min, 100 µL/min. The following applies: column: Zorbax Extend-C18 2.1 x 50 mm; eluents: water / acetonitrile, 0.1% formic acid. The gist of the method: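 Each retention time is based on an adduct peak selected computationally and verified by manual inspection. Measurements used HPLC–quadrupole time-of-flight mass spectrometry in positive and negative ionization mode on mixtures of ~100 pure standards. Chromatography ran on a Zorbax Extend-C18 column (2.1 × 50 mm, 1.8 μm) at 100 μL/min with water and acetonitrile, each containing 0.1% formic acid, and dead and dwell volumes of 40 μL and 900 μL.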
For the compound `C=CCNC(=O)c1nc(C(=O)N2CCN(c3ccccn3)CC2)cs1`, the RP-LC retention time was found to be 567 s.

`CCc1cc(=O)n(CC(=O)Nc2cc(C)ccc2OC)c(N2CCOCC2)n1` showed an RP-LC retention time of 854 s.

For `CC(Oc1cccc2ccccc12)c1nc2c3ccccc3ncn2n1` (centres undefined), the RP-LC retention time worked out at 1090 s.

The compound `COc1cc2c(cc1O)[C@@H](Cc1ccc(O)c(Oc3ccc(C[C@@H]4c5cc(OC)c(OC)cc5CCN4C)cc3)c1)N(C)CC2` registered an RP-LC retention time of 639 s.

As to `O=C(CSc1ncn[nH]1)c1ccc2c(c1)OCCO2`, the RP-LC retention time was 626 s.

Turning to `CC(C)Cn1c(-c2ccc(N(C)C)cc2)nc2ccccc21`, the RP-LC retention time was determined as 748 s.

Turning to `CCCN1CCN(C(=O)c2cn(-c3ccc(-c4nc(C(C)(C)C)no4)cn3)cn2)CC1`, the RP-LC retention time came out at 681 s.

Turning to `Cc1cc(N2CCN(C)CC2)nc2ccc(NC(=S)NCc3ccco3)cc12`, the RP-LC retention time is 564 s.

`CCOc1ccc(NS(=O)(=O)c2cc(-c3cc(C(F)(F)F)on3)sc2C)cc1` showed an RP-LC retention time of 1120 s.

Take `CCC(C)(C)NC(=O)C1CCCN1S(=O)(=O)c1cc2c(cc1C)NC(=O)CO2` (centres undefined): the RP-LC retention time is 745 s.

In the case of `CCCn1cc(CCNS(=O)(=O)c2ccc(OC)c(Cl)c2)c2cccnc21`, the RP-LC retention time was found to be 865 s.

For the compound `CCN1C(=O)COc2ccc(-c3noc(C4(c5ccc(OC)cc5)CC4)n3)cc21`, the RP-LC retention time worked out at 1140 s.

In the case of `Cc1ccc(CNC(=O)c2ccc3c(c2)CN(Cc2scnc2C)CCO3)cc1`, the RP-LC retention time stood at 648 s.

In turn, `CS(=O)(=O)N1CCC(C(=O)NCc2cccc(Oc3ccc(F)cc3)c2)CC1` came in with an RP-LC retention time of 767 s.

The compound `O=C(CSc1nnc(-c2cccc(Br)c2)o1)c1ccc([N+](=O)[O-])cc1` had an RP-LC retention time of 1020 s.

The compound `COc1ccc(CNC(=O)c2cc(-c3ccccc3)ns2)cc1` displayed an RP-LC retention time of 905 s.

Turning to `Cc1cc(N2CCCCC2)n2nc(CN3CCN(C(C)C)CC3)nc2n1`, the RP-LC retention time was 574 s.

With `CC(C)S(=O)(=O)c1cc2c(cc1NC(=O)c1ccc(C(F)(F)F)cc1)n(C)c(=O)n2C`, the RP-LC retention time was found to be 896 s.

For `CN(C)S(=O)(=O)c1ccc(-c2nc3ccccc3s2)cc1`, the RP-LC retention time is 578 s.

In turn, `O=C(NCc1ccccn1)c1ccc(=O)n(Cc2ccccc2)n1` came in with an RP-LC retention time of 573 s.

Turning to `Cc1ccc(C(=O)N2CCC3(CC2)N=C(c2ccc(C)cc2)NO3)cc1`, the RP-LC retention time came out at 858 s.

`O=c1cc[nH]c2c(C(F)(F)F)cccc12`: the RP-LC retention time was 609 s.

As for `COc1ccc(NC(=O)Cn2nc(N3CCCC(C)C3)c3ccccc3c2=O)c(OC)c1` (centres undefined), the RP-LC retention time was found to be 1100 s.

The compound `COc1cccc(-c2nnc(NC(=O)C3CCCCC3)o2)c1` displayed an RP-LC retention time of 753 s.

In turn, `CCCN(CC1CCOC1)C(=O)C1CCCCC1` (centres undefined) came in with an RP-LC retention time of 827 s.

In the case of `CC(C)S(=O)(=O)c1cc2c(cc1NC(=O)c1cccc(F)c1)n(C)c(=O)n2C`, the RP-LC retention time is 846 s.

As to `CCCCNC(=O)C1CCCN(c2ccc(=O)n(-c3cccc(Cl)c3)n2)C1` (centres undefined), the RP-LC retention time turned out to be 840 s.

Consider `O=C(NCc1ccc(Br)cc1)C1CCN(C(=O)C2Sc3ccccc3NC2=O)CC1` (centres undefined), for which the RP-LC retention time was 782 s.

Take `COc1ccccc1CNC(=O)C1CCCN(c2cnc3nccnc3c2)C1` (centres undefined): the RP-LC retention time was found to be 689 s.

`CCC(C)NC(=O)c1cnn(-c2cc(-c3nc(C(C)C)no3)ccn2)c1C` (centres undefined) showed an RP-LC retention time of 617 s.

`Cc1cc(NC(=O)Cn2cnc3c(cnn3C(C)(C)C)c2=O)no1` displayed an RP-LC retention time of 688 s.

`Cc1nn(-c2ccc(N3CCOCC3)nn2)c(C)c1CCC(=O)NCCC(C)C`: the RP-LC retention time came out at 672 s.

`O=C(CC1CCCCC1)N1CCN(c2cc(-c3ccc(Cl)cc3)[nH]n2)CC1` displayed an RP-LC retention time of 936 s.

`CCOc1ccccc1-c1noc(-c2nnn3c2COC(c2ccc(Cl)cc2)C3)n1` (centres undefined) yielded an RP-LC retention time of 1150 s.

`CCC1CCCCN1c1nc(-c2ccc([N+](=O)[O-])cc2)nc2ccccc12` (centres undefined) gave an RP-LC retention time of 1030 s.

`O=C(Nc1ccc(F)cc1Cl)c1cnc(-c2ccc(F)cc2)nc1-c1ccncc1` yielded an RP-LC retention time of 951 s.

`COc1ccccc1C(=O)N1C[C@H](c2nc(-c3cccnc3)no2)[C@@H](C)C1` yielded an RP-LC retention time of 758 s.

Take `O=C(Nc1cccn2c(C3CCC3)nnc12)c1ccc2c(c1)OCO2`: the RP-LC retention time came out at 744 s.

`CCCCC(=O)N1CC(F)(F)C[C@H]1c1nnc(-c2cnccn2)o1`: the RP-LC retention time turned out to be 715 s.

In turn, `CCn1cnc2c1CN(S(=O)(=O)c1ccc(C#N)cc1)CC2` displayed an RP-LC retention time of 616 s.

The compound `Cc1cc2c(cc1S(=O)(=O)N1CCCC1C(=O)NC1CCCC1)OC(C)C(=O)N2` (centres undefined) showed an RP-LC retention time of 730 s.

As for `CCCC(NC(=O)Cc1ccc(Cl)cc1)C(=O)Nc1nc2ccccc2[nH]1` (centres undefined), the RP-LC retention time turned out to be 753 s.

With `O=C(NCCC1=CCCCC1)C1CCCN(c2ccncc2)C1` (centres undefined), the RP-LC retention time came to 645 s.

Compound `CCn1cc(S(=O)(=O)N2C[C@@H](C(=O)NC)[C@H](c3n[nH]c(C)n3)C2)cn1` gave an RP-LC retention time of 577 s.

As for `O=C(NC1CCCCC1)c1ccc(-c2csc(C3CC3)n2)cc1`, the RP-LC retention time came out at 1050 s.

Turning to `O=C(c1c(F)cccc1Cl)N1CCc2nc(-c3ccc(Cl)cc3)ncc2C1`, the RP-LC retention time was found to be 1160 s.

As for `O=C1c2oc3ccccc3c(=O)c2C(c2cccnc2)N1c1nccs1` (centres undefined), the RP-LC retention time amounted to 708 s.

Turning to `O=C(CCc1c(-c2ccccc2)nc2ccccn12)NCc1ccccc1F`, the RP-LC retention time stood at 652 s.

Consider `Cc1ccc2c(Nc3ccc(F)c(F)c3)c(C(=O)N3CCCC3)cnc2n1`, for which the RP-LC retention time worked out at 680 s.

Take `CC(C)Cn1c(=O)c2nscc2n(CC(=O)NC(C)C)c1=O`: the RP-LC retention time stood at 693 s.

`CCCC(=O)Nc1ccc2c(c1)CN(C(=O)c1ccccc1Cl)C(C(=O)N(C)C)C2` (centres undefined) registered an RP-LC retention time of 707 s.

`Cc1ccc(NS(=O)(=O)c2cc(-c3nc(C(C)(C)C)cs3)cs2)c(F)c1` had an RP-LC retention time of 1260 s.

As to `Cc1cc(C)n2c(Nc3ccc4c(c3)OCCO4)c(-c3ccc(Cl)cc3)nc2n1`, the RP-LC retention time is 746 s.

Compound `COCC(=O)N[C@@H]1CN(C(=O)C2CC=CC2)CC[C@@H]1CO` came in with an RP-LC retention time of 578 s.

As to `CCc1ccc(NC(=O)C2CC(=O)N(c3n[nH]c4cccc(F)c34)C2)cc1` (centres undefined), the RP-LC retention time turned out to be 847 s.

`Cc1ccc(Cn2nc3c(S(=O)(=O)N4CCc5ccccc5C4)cccn3c2=O)cc1` yielded an RP-LC retention time of 941 s.

In turn, `O=C(NCc1cccs1)C1CN(C(=O)c2cccs2)CC12CCCCC2` (centres undefined) yielded an RP-LC retention time of 856 s.

Turning to `COc1cc(NC(=O)C2CC(=O)N(CCc3c[nH]c4ccc(C)cc34)C2)cc(OC)c1OC` (centres undefined), the RP-LC retention time worked out at 753 s.

Turning to `CSc1ccc(NC(=O)N2CCc3nc[nH]c3C2)cc1`, the RP-LC retention time amounted to 590 s.

Compound `Cc1ccc(-c2noc(C3CCCN3S(=O)(=O)c3ccc4c(c3)CCC4)n2)cc1` (centres undefined) showed an RP-LC retention time of 1280 s.

`COc1ccc(-c2cc(N3CCC(NC(=O)c4cccc(Br)c4)C3)n[nH]2)cc1` (centres undefined): the RP-LC retention time is 738 s.

For `Cc1ccccc1Cn1c(CN2CCC(C(=O)NCc3cccs3)CC2)cc2ccccc21`, the RP-LC retention time was 790 s.

With `Cc1cccc(CNC(=O)C2(C)Cn3cnc(C(=O)N(C)Cc4ccccc4)c3C(=O)N2C2CC2)c1` (centres undefined), the RP-LC retention time turned out to be 816 s.

Compound `Cc1ccc(NC(=O)c2ccccc2C(=O)O)cc1Br` showed an RP-LC retention time of 768 s.

Compound `Cc1cc(C)n(Cc2nc(-c3ccc(NC(=O)Cc4ccccc4C)cc3)oc2C)n1` registered an RP-LC retention time of 978 s.

Consider `CC1CCC(NC(=O)C2CCCN(S(=O)(=O)c3c[nH]c(C(=O)N4CCCC4)c3)C2)CC1` (centres undefined), for which the RP-LC retention time worked out at 784 s.

In the case of `Cc1cccc(CCNC(=O)Cc2csc3nc(-c4ccc(C)c(C)c4)cn23)c1`, the RP-LC retention time was 911 s.

Take `O=C(CCS(=O)(=O)c1ccccc1)Nc1ccc(-c2ccn[nH]2)cc1`: the RP-LC retention time was found to be 648 s.

In turn, `CCc1nc2cccnc2n1-c1ccc(C(=O)N(C)C)cc1` showed an RP-LC retention time of 589 s.

Take `Cc1cc(S(=O)(=O)[C@H]2CS(=O)(=O)C[C@@H]2N2CCN(c3ccc(F)cc3)CC2)ccc1F`: the RP-LC retention time came out at 662 s.

`Cc1ccc(F)cc1S(=O)(=O)N1CCC2(C1)C(=O)N(C)c1ccccc12` (centres undefined) came in with an RP-LC retention time of 955 s.

Compound `Cc1ccc(NC(=O)C2CCN(c3cc(N4CCSCC4)ncn3)CC2)cc1F` returned an RP-LC retention time of 734 s.

The compound `CCOc1ccc(C(=O)Nc2ccc3c(c2)Sc2ncccc2C(=O)N3C(C)C)cc1` registered an RP-LC retention time of 972 s.

Take `CC(=O)Nc1nc2ccc(CC(=O)N3CCN(c4ccccn4)CC3)cc2s1`: the RP-LC retention time stood at 570 s.

Take `Cc1cccc(NC(=O)Nc2nccn(-c3ccc(C(C)C)cc3)c2=O)c1`: the RP-LC retention time was found to be 1190 s.

`COc1ccc(OC)c(NC(=O)N2CCN(c3cc(C)nc(N4CCOCC4)n3)CC2)c1` yielded an RP-LC retention time of 627 s.

`COc1ccc(CC(=O)N2CCCC2c2cc(C(C)C)on2)cc1` (centres undefined) had an RP-LC retention time of 868 s.

For the compound `CCCn1cc(S(=O)(=O)Nc2ccc(OC)c(OC)c2)c2cccnc21`, the RP-LC retention time amounted to 876 s.

Take `CC(NC(=O)c1ccccc1)c1nc(-c2cccc(-c3ccnn3C)c2)no1` (centres undefined): the RP-LC retention time was 840 s.
